Converted amounts (≈) assume the structure as drawn. Read-outs that look alike come from different tables or passages of the source.
Key:
5-lipoxygenase (5-LPO) = target: T1, 5-lipoxygenase (5-LPO) (Rattus norvegicus, UniProt P12527); assay: 5-Lipoxygenase (5-LPO) inhibitory activity: 5-HETE produced in a cell-free extract of rat basophilic leukemia (RBL-1) cells; format: biochemical
T1 construct: produced in a cell-free extract of rat basophilic leukemia cells (RBL-1 cells, ATCC CRL 1378); endogenous in cells; host or cells: RBL-1 cells (rat basophilic leukemia), ATCC CRL 1378; cell-free extract
T1 sequence (P12527 1-673): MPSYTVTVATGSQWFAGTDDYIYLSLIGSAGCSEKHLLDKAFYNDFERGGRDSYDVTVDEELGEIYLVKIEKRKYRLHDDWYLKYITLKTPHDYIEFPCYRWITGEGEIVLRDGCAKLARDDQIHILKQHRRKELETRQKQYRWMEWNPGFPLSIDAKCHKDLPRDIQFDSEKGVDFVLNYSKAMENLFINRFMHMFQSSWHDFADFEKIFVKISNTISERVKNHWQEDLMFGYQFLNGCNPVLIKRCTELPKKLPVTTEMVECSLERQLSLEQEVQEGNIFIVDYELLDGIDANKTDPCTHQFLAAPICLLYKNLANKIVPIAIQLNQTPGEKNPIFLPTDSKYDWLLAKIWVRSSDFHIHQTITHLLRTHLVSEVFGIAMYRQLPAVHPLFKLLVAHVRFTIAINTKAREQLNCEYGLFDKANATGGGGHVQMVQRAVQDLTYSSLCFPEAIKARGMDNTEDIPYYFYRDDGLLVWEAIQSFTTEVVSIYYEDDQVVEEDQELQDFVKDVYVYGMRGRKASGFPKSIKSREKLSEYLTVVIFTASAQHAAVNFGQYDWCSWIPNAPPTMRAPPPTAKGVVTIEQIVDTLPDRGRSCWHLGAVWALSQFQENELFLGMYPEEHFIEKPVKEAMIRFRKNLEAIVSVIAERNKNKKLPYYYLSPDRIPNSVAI
Experimental: 20-Jar Fermentation. A 5-ml portion of the seed culture was transferred into a 500-ml Erlenmeyer flask containing 100 ml of the seed medium described above. Fermentation was carried out for 3 days at 28° C. and 200 rpm. This seed culture (500 ml) was inoculated into a 20-liter jar fermentor containing 12 liters of the production medium composed of soluble starch 2%, Pharmamedia (Trader's Protein) 1%, yeast extract 0.2%, ZnSO4 ·7H2 O 0.003% and CaCO3 0.4% (pH 7.0) and fermented for 3 days under the following conditions: temperature, 28° C.; aeration, 10 liters/minute; internal pressure, 0.5 kg/cm^2; agitation, 250 rpm. For preparation of an assay sample, a 3-ml of the whole broth was extracted with the same volume of n-butanol. After centrifugation, the solvent layer was evaporated to dryness and dissolved into the same volume of 10% dimethylsulfoxide (DMSO) solution. The solution was used as an assay sample.

[1] = tested on: K562, B16-F10 and Moser cells; assay: In vitro cytotoxicity, range over K562, B16-F10 and Moser; format: cell-based, murine and human; conditions: vs K562, B16-F10 and Moser; read-out: IC50 (inhibited growth of tumor cell lines), range
Experimental: (§1) In Vitro Cytoxicity. B16-F10 (murine melanoma) and Moser (human colorectal carcinoma) were grown in Eagle's minimum essential medium (Nissui) supplement with fetal calf serum (FCS, 10%) and kanamycin (60 μg/ml), HCT-116 (human colon carcinoma) cells were grown in McCoy's 5A Medium (Gibco) supplemented with FCS (10%), penicillin (100 u/ml) and streptomycin (100 μg/ml), and K562 (human myelogenous leukemia) were in RPM 11640 medium supplemented with FCS (10%), penicillin (100 u/ml) and streptomycin (100 μg/ml) at 37° C. under humidified atmosphere in a CO2 incubator. The exponentially growing B16-F10, Moser, K562 and HCT-116 cells were harvested, counted and suspended in the culture media at 1.5×10^4, 6×10^4, 3×10^4 and 8×10^4 cells/ml, respectively. The test materials were planted into the wells of 96 or 24-well tissue culture plate and for 72 hours. The cytotoxic activities were colorimetrically determined at 540 nm after staining viable cells with neutral red solution.

B16 melanoma = format: in vivo, mouse; conditions: ip; for MST (Median survival time) / T/C: Q4D × 3; for Avg Weight change on day 5: mouse, in vivo
Experimental: (§2) B16 melanoma was intraperitoneally (ip) inoculated with 0.5 ml of 10% brei per male BDF1 mouse, and P388 leukemia intraperitoneally inoculated with 10^6 cells per female CDF1 mouse. The test materials were intraperitoneally administered to the tumor-bearing mice by the following treatment schedules: once daily on days 1 to 3 (Q1D×3), once a day on days 1, 4, and 7 (Q3D×3) and once a day on days 1, 5 and 9 (Q4D×3).
(§3) The in vivo antitumor activity was determined in tumor-bearing mice.

P388 leukemia = format: in vivo, mouse; conditions: ip; for T/C: ≥ 125 significantly active; for Avg Weight change on day 4: mouse, in vivo
Experimental: as §2, §3

B16-F10 cells = assay: In vitro cytotoxicity, B16-F10 (murine melanoma), neutral red, 72 hours; format: cell-based; conditions: for IC50: Mus musculus, B16-F10, 72 hours; for cytotoxicity: B16-F10, compared with BU-4664L
Experimental: as §1

Solubility = format: physicochemical
Moser cells = assay: In vitro cytotoxicity, Moser (human colorectal carcinoma), neutral red, 72 hours; format: cell-based
Experimental: as §1

HCT-116 cells = assay: In vitro cytotoxicity, HCT-116 (human colon carcinoma), neutral red, 72 hours; format: cell-based; conditions: for IC50: Homo sapiens, HCT-116, 72 hours; for cytotoxicity: HCT-116, compared with BU-4664L
Experimental: as §1

K562 cells = assay: In vitro cytotoxicity, K562 (human myelogenous leukemia), neutral red, 72 hours; format: cell-based; conditions: K562, 72 hours
Experimental: as §1

[2] = Table 8, rat 5-LPO, read-out: IC50 (5-Lipoxygenase Inhibitory Activity)

For `CC(C)=CCC/C(C)=C/CC/C(C)=C/CN1c2cc(O)cc(O)c2NC(=O)c2cccc(O)c21` [BU-4664L, 5-farnesyl-4,7,9-trihydroxy dibenzo[b,e][1,4]diazepin-11-one], the “5-LPO inhibitory activity” value (5-lipoxygenase (5-LPO); rat 5-LPO) was “good 5-LPO inhibitory activity”, the IC50 (5-lipoxygenase (5-LPO); rat 5-LPO, read-out: IC50 (5-LPO inhibitory activity)) was 1.7 µM and the IC50 [1] was 1.1 to 18 µg/mL (≈ 2.38 to 38.9 µM). For the same compound, the “survival time of mice inoculated with B16 melanoma” value (B16 melanoma) was “significant prolongation of the survival time”, the “MST (Median survival time)” value (B16 melanoma; 3 mg/kg/day) was 16.5 days and the T/C (B16 melanoma; 3 mg/kg/day) was 127%. The “MST (Median survival time)” value (B16 melanoma; 10 mg/kg/day) was 17.5 days, the T/C (B16 melanoma; 10 mg/kg/day) was 135% and the “MST (Median survival time)” value (B16 melanoma; 30 mg/kg/day) was 17.0 days. For the same compound, the T/C (B16 melanoma; 30 mg/kg/day) was 131%, the “activity against B16 melanoma in terms of minimum effective dose” value (B16 melanoma; compared with Mitomycin C) was “weaker than Mitomycin C” and the “Avg Weight change on day 5” value (B16 melanoma; 3 mg/kg/day) was “+0.3 g”. The “Avg Weight change on day 5” value (B16 melanoma; 10 mg/kg/day) was “+0.3 g”, the “Avg Weight change on day 5” value (B16 melanoma; 30 mg/kg/day) was -0.8 g and the “T/C values against P388 leukemia” value (P388 leukemia) was “good T/C values”. For the same compound, the “survival time of mice inoculated with P388” value (P388 leukemia) was “significant prolongation of the survival time”, the “MST (Median survival time)” value (P388 leukemia; 0.3 mg/kg/day, Q1D × 3) was 12.0 days and the T/C (P388 leukemia; 0.3 mg/kg/day, Q1D × 3) was 120%. The “MST (Median survival time)” value (P388 leukemia; 1 mg/kg/day, Q1D × 3) was 11.0 days, the T/C (P388 leukemia; 1 mg/kg/day, Q1D × 3) was 110% and the “MST (Median survival time)” value (P388 leukemia; 1 mg/kg/day, Q3D × 3) was 11.9 days. The T/C (P388 leukemia; 1 mg/kg/day, Q3D × 3) was 119%, the “MST (Median survival time)” value (P388 leukemia; 3 mg/kg/day, Q1D × 3) was 13.0 days and the T/C (P388 leukemia; 3 mg/kg/day, Q1D × 3) was 130%. For the same compound, the “MST (Median survival time)” value (P388 leukemia; 3 mg/kg/day, Q3D × 3) was 15.2 days, the T/C (P388 leukemia; 3 mg/kg/day, Q3D × 3) was 152% and the “MST (Median survival time)” value (P388 leukemia; 10 mg/kg/day, Q1D × 3) was 15.0 days. The T/C (P388 leukemia; 10 mg/kg/day, Q1D × 3) was 150%, the “MST (Median survival time)” value (P388 leukemia; 10 mg/kg/day, Q3D × 3) was 16.2 days and the T/C (P388 leukemia; 10 mg/kg/day, Q3D × 3) was 162%. For the same compound, the “MST (Median survival time)” value (P388 leukemia; 30 mg/kg/day, Q1D × 3) was 16.0 days, the T/C (P388 leukemia; 30 mg/kg/day, Q1D × 3) was 160% and the “MST (Median survival time)” value (P388 leukemia; 30 mg/kg/day, Q3D × 3) was 12.5 days. For the same compound, the T/C (P388 leukemia; 30 mg/kg/day, Q3D × 3) was 152%, the “Avg Weight change on day 4” value (P388 leukemia; 0.3 mg/kg/day) was “+0.5 g” and the IC50 (B16-F10 cells) was 1.9 µg/mL (≈ 4.11 µM). For the same compound, the solubility (Solubility; chloroform) was “slightly soluble”, the solubility (Solubility; dimethyl sulfoxide) was “soluble” and the solubility (Solubility; ethanol) was “soluble”. For the same compound, the solubility (Solubility; ethyl acetate) was “soluble”, the solubility (Solubility; methanol) was “soluble” and the solubility (Solubility; n-hexane) was “insoluble”. The solubility (Solubility; water) was “insoluble”, the IC50 (Moser cells) was 18 µg/mL (≈ 38.9 µM) and the IC50 (HCT-116 cells) was 2.6 µg/mL (≈ 5.62 µM). For the same compound, the IC50 (K562 cells) was 1.1 µg/mL (≈ 2.38 µM).
For `CO[C@@]12[C@H](COC(N)=O)C3=C(C(=O)C(C)=C(N)C3=O)N1C[C@@H]1N[C@@H]12` [Mitomycin C, reference compound], the “MST (Median survival time)” value (B16 melanoma; 0.5 mg/kg/day) was 16.0 days, the T/C (B16 melanoma; 0.5 mg/kg/day) was 123% and the “MST (Median survival time)” value (B16 melanoma; 1 mg/kg/day) was 22.5 days. For the same compound, the T/C (B16 melanoma; 1 mg/kg/day) was 173%, the “MST (Median survival time)” value (B16 melanoma; 2 mg/kg/day) was 26.7 days and the T/C (B16 melanoma; 2 mg/kg/day) was 204%. For the same compound, the “Avg Weight change on day 5” value (B16 melanoma; 0.5 mg/kg/day) was “+0.8 g”, the “Avg Weight change on day 5” value (B16 melanoma; 1 mg/kg/day) was “+0.5 g” and the “Avg Weight change on day 5” value (B16 melanoma; 2 mg/kg/day) was “+0.3 g”. The “MST (Median survival time)” value (P388 leukemia; 0.3 mg/kg/day, Q1D × 3) was 12.5 days, the T/C (P388 leukemia; 0.3 mg/kg/day, Q1D × 3) was 119% and the “MST (Median survival time)” value (P388 leukemia; 1 mg/kg/day, Q1D × 3) was 16.0 days. The T/C (P388 leukemia; 1 mg/kg/day, Q1D × 3) was 152%, the “MST (Median survival time)” value (P388 leukemia; 3 mg/kg/day, Q1D × 3) was 21.0 days and the T/C (P388 leukemia; 3 mg/kg/day, Q1D × 3) was 200%. For the same compound, the “Avg Weight change on day 4” value (P388 leukemia; 0.3 mg/kg/day) was “+0.3 g”, the “Avg Weight change on day 4” value (P388 leukemia; 1 mg/kg/day) was 0.0 g and the “Avg Weight change on day 4” value (P388 leukemia; 3 mg/kg/day) was -1.5 g.
With `CC(=O)Oc1cc(OC(C)=O)c2c(c1)N(C/C=C(\C)CC/C=C(\C)CCC=C(C)C)c1c(OC(C)=O)cccc1C(=O)N2` [Triacetyl BU-4664L] the IC50 (5-lipoxygenase (5-LPO); [2]) was greater than 34 µM, the “5-LPO inhibitory activity” value (5-lipoxygenase (5-LPO); rat 5-LPO) was “seemed to be devoid of 5-LPO inhibitory activity” and the “cytotoxicity” value (B16-F10 cells) was “weaker cytotoxicity”. For the same compound, the IC50 (B16-F10 cells) was 2.4 µg/mL (≈ 4.08 µM), the “cytotoxicity” value (HCT-116 cells) was “weaker cytotoxicity” and the IC50 (HCT-116 cells) was 4.4 µg/mL (≈ 7.47 µM).
For `COc1cc(OC)c2c(c1)N(C/C=C(\C)CC/C=C(\C)CCC=C(C)C)c1c(OC)cccc1C(=O)N2` [Trimethyl BU-4664L], the IC50 (5-lipoxygenase (5-LPO); [2]) was greater than 39.6 µM, the “5-LPO inhibitory activity” value (5-lipoxygenase (5-LPO); rat 5-LPO) was “seemed to be devoid of 5-LPO inhibitory activity” and the “cytotoxicity” value (B16-F10 cells) was “weaker cytotoxicity”. For the same compound, the IC50 (B16-F10 cells) was 21 µg/mL (≈ 41.6 µM), the “cytotoxicity” value (HCT-116 cells) was “weaker cytotoxicity” and the IC50 (HCT-116 cells) was 12.5 µg/mL (≈ 24.8 µM).
